# From patent publication US20040235856A1, “Treatment of incontinence” (Pfizer Inc, priority 2003, published 2004)
# Where “and” joins values, the source holds several entries; their conditions need not be identical. Identical values can stand only once.
# Legend:
# [1] = tested on: ovariectomised, birth traumatised rats; assay: Leak point pressure in ovariectomised, birth traumatised female rats; type: in vivo, Sprague Dawley rats
# Description: In order to evaluate whether the effects of 5-HT2C agonists on urethral function was present in species other than the guinea pig, leak point pressure was measured in the absence and presence of MK-212 in a known model of urethral function in the rat (Lin A. S. et al. (1998) Urology 52:143-51; Sievert K. D. et al. (2001) J Urol. 166, 311-317; Resplande J et al (2002) J Urol. 168, 323-30), namely ovariectomised, birth traumatised rats.
# Ovariectomy and simulated birth trauma were carried out on 8 female Sprague Dawley rats as described previously (Lin A. S. et al. (1998) Urology 52:143-51; Sievert K. D. et al. (2001) J Urol. 166, 311-317; Resplande J et al (2002) J Urol. 168, 323-30). Six weeks subsequent to recovery all animals underwent investigation of leak point pressure, initially rats were anaesthetised with halothane (4%), carried in oxygen (3-4L min^−1) and were maintained at an appropriate surgical plane with urethane (25% w/v; 0.5 ml 100 g^−1 body weight). The trachea, a jugular vein and a carotid artery were cannulated for respiratory ventilation, injection of test compound and monitoring of blood pressure, respectively. A midline laporatomy was performed to expose the urinary bladder and a cystometry tube was inserted through a small incision in the dome of the bladder and secured in place. The abdominal wound was closed tightly around the externalised cystometry tube, which, in turn, was connected to an infusion pump and pressure transducer, for filling the bladder and for recording intravesical pressure, respectively. Baseline leak point pressures (LPP) were established by slow elevation of a saline containing bag connected to the bladder and pressure transducer via the cystometry tube. LPP was defined as the bladder pressure at the point where fluid was first noted at the urethral meatus. Between 4 and 7 baseline readings were made before iv bolus administration of MK-212 (0.1 mg kg^−1). Following a 2 min delay to allow for distribution LPP measurements were repeated in an identical manner to that described above, between 3 and 8 measures were taken.
# [2] = tested on: mice; settings: subcutaneous administration; only significant at the highest dose tested; cited from earlier work
# [3] = tested on: anaesthetised guinea pig; assay: EUS EMG activity during normal bladder filling in anaesthetised guinea pig; type: in vivo
# Description: (§1) In order to explore what subtypes of 5-HT receptors may be involved in enhancing the sacral spinal drive to the EUS, the effects of m-CPP (Sigma Aldrich Product number C-5554), MK-212 (Tocris Cat No 0941), YM-348 (WO 01/83487), Ro 60-0175 (Tocris Cat No 1854), WAY-161503 (Tocris Cat No 1801), and Example 1-N in WO 03/000663, which have been reported to be 5-HT2C receptor agonists, were investigated in an anaesthetised guinea pig model specifically designed to measure urethral continence mechanisms and leak point pressure using two paradigms. Firstly the activity of urethral striated musculature in response to increased abdominal pressure and so the pressure required to induce leak and secondly, the response of urethral striated musculature during normal bladder filling so as to maintain continence, as measured by changes in electromyographic activity of this continence maintaining sphincter.
# Experiments were performed in adult female guinea pigs, weighing 620-707 g. All animals were initially anaesthetised with halothane (4%), carried in oxygen (3-4L min^−1) and were maintained at an appropriate surgical plane with urethane (25% w/v; 0.5 ml 100 g^−1 body weight). The trachea, a jugular vein and a carotid artery were cannulated for respiratory ventilation, injection of test compound and monitoring of blood pressure, respectively. A midline laporatomy was performed to expose the urinary bladder and a cystometry tube was inserted through a small incision in the dome of the bladder and secured in place. The abdominal wound was closed tightly around the externalised cystometry tube, which, in turn, was connected to an infusion pump and pressure transducer, for filling the bladder and for recording intravesical pressure, respectively. […]
# Following a 30 min post surgery stabilisation period, the bladder was filled at a rate of 150 μl min^−1 with physiological saline (room temperature), until initiation of a micturition reflex or leak was observed. […] Additionally, EUS EMG activity and intravesical pressures were recorded throughout bladder filling. […]
# [4] = tested on: anaesthetised guinea pig; assay: Abdominal weight inducing micturition or leak and EUS EMG activity in anaesthetised guinea pig; type: in vivo; settings: for % of Control Abdominal Weight Inducing Micturition or Leak: bladder at 75% of threshold volume
# Description: as §1
# Experiments were performed in adult female guinea pigs, weighing 620-707 g. All animals were initially anaesthetised with halothane (4%), carried in oxygen (3-4L min^−1) and were maintained at an appropriate surgical plane with urethane (25% w/v; 0.5 ml 100 g^−1 body weight). The trachea, a jugular vein and a carotid artery were cannulated for respiratory ventilation, injection of test compound and monitoring of blood pressure, respectively. A midline laporatomy was performed to expose the urinary bladder and a cystometry tube was inserted through a small incision in the dome of the bladder and secured in place. The abdominal wound was closed tightly around the externalised cystometry tube, which, in turn, was connected to an infusion pump and pressure transducer, for filling the bladder and for recording intravesical pressure, respectively. Electromyographic (EMG) wire leads were inserted into the EUS striated muscle layer opposed to the dorsal surface of the symphysis pubis.
# Following a 30 min post surgery stabilisation period, the bladder was filled at a rate of 150 μl min^−1 with physiological saline (room temperature), until initiation of a micturition reflex or leak was observed. Following micturition or leak, the bladder was drained via the externalised cystometry tube. Bladder filling was repeated at least 3 times in order to establish a mean bladder threshold capacity for initiation of micturition or leak. Additionally, EUS EMG activity and intravesical pressures were recorded throughout bladder filling. Subsequently 1 of 2 protocols was carried out.
# 1. Once a threshold bladder volume, which induced micturition or leak, was established, 75% of this volume was used for the next stage of the experiment. The bladder was filled (150 μl min^−1) to 75% of threshold volume with physiological saline and, through the use of a specially constructed frame, weights were positioned on the ventral surface of the abdomen of the animal just rostral to the position of the bladder. Starting at 50 g, then 60 g and then at increasing increments of 20 g, weights were placed on the animal's abdomen until micturition/leakage of fluid was observed. EUS EMG activity and intravesical pressure were recorded while weights were applied to the abdomen. The main parameters investigated were minimum abdominal weight required to induce micturition or leak at 75% of bladder threshold volume, and maximum EUS EMG activity at micturition or leak. Test drug or vehicle was injected intravenously immediately after the bladder was filled to 75% of threshold volume, and 60-120 sec before applying the first abdominal weight (50 g).
# Agonists were tested at doses between 0.1 and 3.0 mg kg^−1. In addition the effect of the reported 5-HT2C selective antagonist SB 242084 (Sigma, Cat-No: S-8061) (1 mg kg^−1) on agonist-induced effects was investigated in some animals.
# [5] = 0.1 mg/kg iv bolus, individual animals 1-8
# [6] = 0.3 mg kg^-1, filling 150 μl min^-1, FIG. 1b
smiles,measurement,setting,value
Clc1cncc(N2CCNCC2)n1 [MK-212],animals in which LPP pressure increased,[1]; 0.1 mg kg^-1,7 of 8
same,mean increase in LPP (mean ± standard deviation),"[1]; 0.1 mg kg^-1, N=7",7.1±2.6 mmHg
same,Increase in LPP over baseline,[1]; [5],10.2 mmHg and 5.5 mmHg and 7.0 mmHg and 0.4 mmHg and 3.6 mmHg and 6.0 mmHg and 10.9 mmHg and 6.7 mmHg
same,LPP (mean ± SD) after MK-212,[1]; [5],30.6 (3.8) mmHg and 23.4 (3.4) mmHg and 21.8 (1.7) mmHg and 18.2 (1.5) mmHg and 27.6 (1.5) mmHg and 30.7 (1.2) mmHg and 33.5 (1.6) mmHg and 23.0 (2.6) mmHg
"FC(F)(F)c1ccc(N2CCNCC2)nc1Cl [Org-12962, 1-[6-chloro-5-(trifluoromethyl)-2-pyridinyl]piperazine]",urine wet spot size,[2],reduce urine wet spot size
Cc1cc2c(cc1Cl)N(C(=O)Nc1ccc(Oc3cccnc3C)nc1)CC2 [SB 242084],effect of antagonist on agonist-induced effects,"[3]; 1 mg kg^-1, in those animals tested",abolished the effects of applied 5HT2c agonists
O=C1Nc2cc(Cl)c(Cl)cc2N2CCNCC12 (stereo not shown) [Way 161503],EUS EMG activity during normal bladder filling,[3]; [6],potentiated
same,bladder volume at which EUS EMG activity increases,[3]; [6],increases in activity occurred at lower bladder volumes than in drug free conditions
"Clc1cccc(N2CCNCC2)c1 [m-CPP, m-chlorophenylpiperazine]",% of Control EUS EMG Activity,[4]; 0.3 mg kg^-1 iv.,110 ± 43 % of Control
same,% of Control Abdominal Weight Inducing Micturition or Leak,[4]; 0.3 mg kg^-1 iv.,128 ± 6 % of Control
same,% of Control EUS EMG Activity,[4]; 1.0 mg kg^-1 iv.,135 ± 10 % of Control
same,% of Control Abdominal Weight Inducing Micturition or Leak,[4]; 1.0 mg kg^-1 iv.,139 ± 12 % of Control
same,increase in EUS EMG activity compared with controls,[4]; 3.0 mg kg^-1,56%
same,increase of the weight required to induce micturition or leak compared with controls,[4]; 3.0 mg kg^-1,66%
same,% of Control EUS EMG Activity,[4]; 3.0 mg kg^-1 iv.,156 ± 18 % of Control
same,% of Control Abdominal Weight Inducing Micturition or Leak,[4]; 3.0 mg kg^-1 iv.,166 ± 9 % of Control
